Measurements from patent US20170066717A1, “NEW PHENYLAZETIDINECARBOXYLATE OR -CARBOXAMIDE COMPOUNDS” (INVENTIVA, priority 2014, published 2017).

What was measured:
[1] = target: T1, NURR-1/RXRα (Homo sapiens, UniProt P19793); assay: Transactivation test, NURR-1-Gal4/RXRα, luciferase reporter in Cos-7 cells; format: cell-based; conditions: for Emax: COS-7, induction level relative to reference XCT0135908 at 2×10^−5 M (=100%), read-out: hNurr1_RXRaFL Emax (%); for EC50: Cos-7 cells, NURR-1-Gal4/RXRα, luciferase reporter, read-out: hNurr1_RXRaFL EC50
T1 construct: expressed in transfected cells; host or cells: Cos-7 cells
T1 sequence (P19793 whole entry, the tested form may be a part): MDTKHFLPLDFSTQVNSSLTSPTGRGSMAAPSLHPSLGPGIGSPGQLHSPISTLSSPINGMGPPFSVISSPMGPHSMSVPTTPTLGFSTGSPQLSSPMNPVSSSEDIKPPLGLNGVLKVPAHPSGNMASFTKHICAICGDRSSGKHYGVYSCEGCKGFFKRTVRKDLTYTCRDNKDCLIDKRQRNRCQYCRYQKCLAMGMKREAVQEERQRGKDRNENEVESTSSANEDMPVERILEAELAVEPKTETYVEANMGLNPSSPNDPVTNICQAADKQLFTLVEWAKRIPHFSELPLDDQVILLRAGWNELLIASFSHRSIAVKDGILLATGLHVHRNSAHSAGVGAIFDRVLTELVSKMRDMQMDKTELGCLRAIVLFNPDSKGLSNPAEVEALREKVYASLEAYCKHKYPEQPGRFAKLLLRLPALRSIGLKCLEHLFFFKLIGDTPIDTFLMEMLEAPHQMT
T1 sequence (P43354 whole entry partner, the tested form may be a part): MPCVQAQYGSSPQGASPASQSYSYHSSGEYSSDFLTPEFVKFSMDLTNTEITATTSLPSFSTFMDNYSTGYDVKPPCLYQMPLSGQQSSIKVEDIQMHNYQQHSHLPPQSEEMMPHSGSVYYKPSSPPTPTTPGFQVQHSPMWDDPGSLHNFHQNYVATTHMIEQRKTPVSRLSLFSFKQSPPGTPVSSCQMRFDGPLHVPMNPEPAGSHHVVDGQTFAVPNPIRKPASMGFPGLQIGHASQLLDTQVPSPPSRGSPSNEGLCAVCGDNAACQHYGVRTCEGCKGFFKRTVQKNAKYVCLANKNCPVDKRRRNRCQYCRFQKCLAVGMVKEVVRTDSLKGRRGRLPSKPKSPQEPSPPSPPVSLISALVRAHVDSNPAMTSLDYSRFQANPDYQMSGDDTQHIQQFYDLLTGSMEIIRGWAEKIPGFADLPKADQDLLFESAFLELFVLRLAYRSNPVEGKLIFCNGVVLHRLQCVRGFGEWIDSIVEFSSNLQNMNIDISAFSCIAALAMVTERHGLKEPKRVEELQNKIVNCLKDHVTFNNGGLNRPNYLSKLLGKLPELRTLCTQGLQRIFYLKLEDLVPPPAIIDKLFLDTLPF
T1 sequence (P04386 1-147 partner limits assumed): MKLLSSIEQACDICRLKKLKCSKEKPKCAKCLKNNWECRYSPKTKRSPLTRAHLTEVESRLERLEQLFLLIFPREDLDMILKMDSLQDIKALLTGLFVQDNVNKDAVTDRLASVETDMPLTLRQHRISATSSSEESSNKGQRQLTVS

[2] = target: T2, NURR-1/RXRγ (Homo sapiens, UniProt P48443); assay: Transactivation test, NURR-1-Gal4/RXRγ, luciferase reporter in Cos-7 cells; format: cell-based; conditions: for Emax: COS-7, induction level relative to reference XCT0135908 at 2×10^−5 M (=100%), read-out: hNurr1_RXRgFL Emax (%); for EC50: Cos-7 cells, NURR-1-Gal4/RXRγ, luciferase reporter, read-out: hNurr1_RXRgFL EC50
T2 construct: expressed in transfected cells; host or cells: Cos-7 cells
T2 sequence (P48443 whole entry, the tested form may be a part): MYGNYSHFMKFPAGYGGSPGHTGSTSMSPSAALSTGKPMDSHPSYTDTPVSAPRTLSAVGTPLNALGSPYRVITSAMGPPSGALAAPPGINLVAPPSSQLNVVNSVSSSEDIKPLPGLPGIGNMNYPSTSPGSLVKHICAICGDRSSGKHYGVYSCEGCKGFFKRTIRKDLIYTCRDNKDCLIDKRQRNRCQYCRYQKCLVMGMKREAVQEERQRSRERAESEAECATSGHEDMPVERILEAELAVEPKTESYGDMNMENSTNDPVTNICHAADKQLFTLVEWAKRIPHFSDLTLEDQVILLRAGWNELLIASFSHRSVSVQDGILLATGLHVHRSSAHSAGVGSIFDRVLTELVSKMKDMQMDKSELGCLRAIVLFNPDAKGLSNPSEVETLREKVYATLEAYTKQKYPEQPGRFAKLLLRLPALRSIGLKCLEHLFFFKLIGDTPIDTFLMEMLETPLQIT
T2 sequence (P43354 whole entry partner, the tested form may be a part): as the sequence (P43354 whole entry partner, the tested form may be a part) above
T2 sequence (P04386 1-147 partner limits assumed): as the sequence (P04386 1-147 partner limits assumed) above

Emax [1] [%] | EC50 [1] [nM] | Emax [2] [%] | EC50 [2] [nM] | melting point [°C] | Compound
105 | 22 | 92 | 313 | 78 to 87 | CC(C)C1Oc2cc(C(F)(F)F)ccc2N(c2cccc(N3CC(C(=O)O)C3)c2)C1=O (centres unmarked) [Example 248, 1-[3-[2-isopropyl-3-oxo-7-(trifluoromethyl)-1,4-benzoxazin-4-yl]phenyl]azetidine-3-carboxylic acid]
95 | 82 | 77 | 148 | 62 to 69 | O=C([O-])C1CN(c2cccc(N3c4ccc(Cl)cc4C4CC43)c2)C1.[Na+] (centres unmarked) [Example 280, sodium 1-[3-(5-chloro-1a,6b-dihydro-1H-cyclopropa[b]indol-2-yl)phenyl]azetidine-3-carboxylate]
92 | 6 | 90 | 14 | 57 to 62 | O=C(O)C1CN(c2cccc(N3CCCc4cc(C(F)(F)F)ccc43)c2)C1 [Example 220, 1-[3-[6-(trifluoromethyl)-3,4-dihydro-2H-quinolin-1-yl]phenyl]azetidine-3-carboxylic acid]
95 | 1710 | 81 | 2260 | 64 to 68 | CC(C)c1ccc2c(c1)OC(C)(C)CCN2c1cccc(N2CC(C(=O)O)C2)c1 [Example 234, 1-[3-(8-isopropyl-2,2-dimethyl-3,4-dihydro-1,5-benzoxazepin-5-yl)phenyl]azetidine-3-carboxylic acid]
82 | 37 | 90 | 103 | 84 to 91 | CC1(C)CCC2C(C1)c1cc(C(F)(F)F)ccc1N2c1cccc(N2CC(C(=O)O)C2)c1 (single isomer, unassigned; isomer 1) [Example 145-1, 1-[3-[3,3-dimethyl-6-(trifluoromethyl)-2,4,4a,9a-tetrahydro-1H-carbazol-9-yl]phenyl]azetidine-3-carboxylic acid (isomer 1)]
96 | 13 | 94 | 53 | 86 to 96 | CC(C)CC1Oc2cc(C(F)(F)F)ccc2N(c2cccc(N3CC(C(=O)O)C3)c2)C1=O (centres unmarked) [Example 246, 1-[3-[2-isobutyl-3-oxo-7-(trifluoromethyl)-1,4-benzoxazin-4-yl]phenyl]azetidine-3-carboxylic acid]
72 | 5 | 73 | 14 | 70 to 79 | CCC1(CC)CN(c2cccc(N3CC(C(=O)O)C3)c2)c2ccc(C(F)(F)F)cc2O1 [Example 218, 1-[3-[2,2-diethyl-7-(trifluoromethyl)-3H-1,4-benzoxazin-4-yl]phenyl]azetidine-3-carboxylic acid]
99 | 284 | 65 | 760 | 75 to 81 | O=C(O)C1CN(c2cccc(-c3cc(C(F)(F)F)cc4c3NCCC4)c2)C1 [Example 201, 1-[3-[6-(trofluromethyl)-1,2,3,4-tetrahydroquinolin-8-yl]phenyl]azetidine-3-carboxylic acid]
86 | 103 | 82 | 154 | 168 to 171 | Cc1c(N2CC(C(=O)O)C2)cccc1N1CC(C)(C)Oc2cc(C(F)(F)F)ccc21 [Example 238]
92 | 140 | 113 | 199 | 154 to 162 | O=C(O)C1CN(c2cccc(N3CC4(CCOCC4)c4cc(C(F)(F)F)ccc43)c2)C1 [Example 141, 1-[3-[5-(trifluoromethyl)spiro[indoline-3,4′-tetrahydropyran]-1-yl]phenyl]azetidine-3-carboxylic acid]
96 | 326 | 101 | 435 | 70 to 88 | CC(C)c1cc2c(c(-c3cccc(N4CC(C(=O)O)C4)c3)c1)C(=O)CC(C)(C)O2 [Example 71, 1-[3-(7-isopropyl-2,2-dimethyl-4-oxochroman-5-yl)phenyl]azetidine-3-carboxylic acid]
95 | 245 | 83 | 548 | 78 to 91 | Cc1ccc2c(c1)OC(C)(C)C(=O)N2c1cccc(N2CC(C(=O)O)C2)c1 [Example 249, 1-[3-(2,2,7-trimethyl-3-oxo-1,4-benzoxazin-4-yl)phenyl]azetidine-3-carboxylic acid]
93 | 514 | 88 | 766 | 104 to 108 | CC(C)c1ccc2c(c1)OC(C)(C)C(=O)N2c1cccc(N2CC(C(=O)O)C2)c1 [Example 251, 1-[3-(7-isopropyl-2,2-dimethyl-3-oxo-1,4-benzoxazin-4-yl)phenyl]azetidine-3-carboxylic acid]
118 | 234 | 102 | 6110 | 96 to 99 | Cc1ccc(N2CC(C)(C)Oc3cc(C(F)(F)F)ccc32)cc1N1CC(C(=O)O)C1 [Example 239, 1-[5-[2,2-dimethyl-7-(trifluoromethyl)-3H-1,4-benzoxazin-4-yl]2-methylphenyl]azetidine-3-carboxylic acid]
110 | 38 | 93 | 65 | 66 to 71 | CC1(C)CN(c2cccc(N3CC(C(=O)O)C3)c2)c2ccc(Cl)cc2O1 [Example 224, 1-[3-(7-chloro-2,2-dimtethyl-3H-1,4-benzoxazin-4-yl)phenyl]azetidine-3-carboxylic acid]
97 | 68 | 92 | 228 | 49 to 52 | CC(C)c1ccc2c(c1)CCCN2c1cccc(N2CC(C(=O)[O-])C2)c1.[Na+] [Example 221, sodium 1-[3-(6-isopropyl-3,4-dihydro-2H-1uinolin-1-yl)phenyl]azetidine-3-carboxylate]
97 | 7 | 112 | 40 | 63 to 69 | CCc1noc2cc(C(C)C)cc(-c3cccc(N4CC(C(=O)O)C4)c3)c12 [Example 72, 1-[3-(3-ethyl-6-isopropy;-1,2-benzoxazol-4-yl)phenyl]azetidine-3-carboxylic acid]
137 | 19 | 139 | 29 | 62 to 70 | CC1COc2cc(C(F)(F)F)ccc2N1c1cccc(N2CC(C(=O)O)C2)c1 (centres unmarked) [Example 124, 1-[3-[3-methyl-7-(trifluoromethyl)-2,3-dihydro-1,4-benzoxazin-4-yl]phenyl]azetidine-3-carboxyltc add]
100 | 19 | 92 | 43 | 73 to 85 | CCC1(CC)Oc2cc(C(F)(F)F)ccc2N(c2cccc(N3CC(C(=O)O)C3)c2)C1=O [Example 247, 1-[3-[2,2-diethyl-3-oxo-7-(trifluoromethyl)-1,4-benzoxazin-4-yl]phenyl]azetidine-3-carboxylic acid]
84 | 227 | 76 | 299 | 149 to 155 | CC1(C)CN(c2cccc(N3CC(C(=O)[O-])C3)c2)c2cnc(C(F)(F)F)cc2O1.[Na+] [Example 242, sodium 1-[3-[2,2-dimethyl-7-(trofluoromethyl)-3H-pyrido[4,3-b][1,4]ozaxin-4-yl]phenyl]azetidine-3-carboxylate]
78 | 31 | 95 | 304 | 141 to 170 | O=C([O-])C1CN(c2cccc(N3c4ccc(Cl)cc4C4CCCC43)c2)C1.[Na+] (centres unmarked) [Example 261, sodium 1-[3-(7-chloro-2,3,3a,8b-tetrahydro-1H-cyclopenta[b]indol-4-yl)phenyl]azetidine-3-carboxylate]
111 | 2 | 115 | 1 | 93 to 98 | Cc1cc(N2CC(C(=O)O)C2)cc(N2CC(C)(C)Oc3cc(C(F)(F)F)ccc32)c1 [Example 116, 1-[3-[2,2-dimethyl-7-(trifluoromethyl)-3H-1,4-benzoxazin-4-yl]-5-methylphenyl]azetidine-3-carboxylic acid]
55 | 309 | 51 | 303 | 160 to 169 | CC1(C)CNc2cc(C(F)(F)F)cc(-c3cccc(N4CC(C(=O)O)C4)c3)c2O1 [Example 202, 1-[3-[2,2-dimethyl-6-(trifluoromethyl)-3,4-dihydro-1,4-benzoxazin-8-yl]phenyl]azetidine-3-carboxylic acid]
90 | 5 | 91 | 7 | 182 to 184 | Cc1cn(-c2cccc(N3CC(C(=O)NC4CC4)C3)c2)c2ccc(C(F)(F)F)cc12 [Example 184, N-cyclopropyl-1-[3-[3-methyl-5-(trifluoromethyl)indol-1-yl]phenyl]azetidine-3-carboxamide]
105 | 719 | 96 | 2090 | 195 to 199 | O=C(O)C1CN(c2cccc(N3C(=O)COc4cc(C(F)(F)F)ccc43)c2)C1 [Example 252, 1-[3-[3-oxo-7-(trifluoromethyl)-1,4-benzoxazin-4-yl]phenyl]azetidine-3-carboxylic acid]
